Earlier results in Sander's compilation of Henry's law constants (doi:10.1016/j.chemosphere.2007.04.088).

test: Henry solubility constant Hcp at 298.15 K (mol/(m3 Pa)); details: reference: Warneck (2007); cited value

Question: With `ClCC(Cl)(Cl)Cl` [1,1,1,2-tetrachloroethane] as the compound, how does the “Henry solubility constant Hcp” value read?
Answer: 0.0042

Question: For `C=CCl` [chloroethene], which “Henry solubility constant Hcp” value is on record?
Answer: 0.00038

Question: With `C=C(Cl)Cl` [1,1-dichloroethene] as the compound, how does the “Henry solubility constant Hcp” value read?
Answer: 0.00037

Question: Which “Henry solubility constant Hcp” value does the source give for `CC(Cl)(Cl)Cl` [1,1,1-trichloroethane] here?
Answer: 0.0006

Question: Which “Henry solubility constant Hcp” value does the source give for `ClC(Cl)C(Cl)Cl` [1,1,2,2-tetrachloroethane] here?
Answer: 0.024

Question: Which “Henry solubility constant Hcp” value does the source give for `ClCC(Cl)Cl` [1,1,2-trichloroethane] here?
Answer: 0.011

Question: For `ClC(Cl)=C(Cl)Cl` [tetrachloroethene], which “Henry solubility constant Hcp” value is on record?
Answer: 0.00062

Question: With `ClC(Cl)(Cl)Cl` [tetrachloromethane] as the compound, how does the “Henry solubility constant Hcp” value read?
Answer: 0.00036

Question: With `ClCCl` [dichloromethane] as the compound, how does the “Henry solubility constant Hcp” value read?
Answer: 0.0039

Question: With `ClC=C(Cl)Cl` [trichloroethene] as the compound, how does the “Henry solubility constant Hcp” value read?
Answer: 0.0011

Question: With `CCCl` [chloroethane] as the compound, how does the “Henry solubility constant Hcp” value read?
Answer: 0.00083
